According to patent publication US12116594B2, “Methods for differentiating cells” (BOND UNIVERSITY LTD, priority 2015, dated 2024):
“Also recorded” adds a separate entry of the source.

Test system: Mell hESC
Assay: Differentiation assay for small molecule differentiation of hESC to hESC-RPEC; ANEB outgrowths scored for % putative RPE morphology at day 14
Type: cell-based, human
Excerpt: FIG. 31 Establishment of differentiation conditions for hESC-RPEC differentiation using small molecules. (A): Differentiation assay for small molecule differentiation of Mell hESC to hESC-RPEC. […] (B): Optimal ANEB size determined between 1000-1500 cells/body. (C): Optimal window for both seeding ANEBs and switching to RDM is day 6. […] For each experiment, ANEB outgrowths were scored for % putative RPE morphology at day 14. Differentiation is represented as heat map scores (0=0%, 1=5-10%, 2=10-15%, 3=15-25%, 5=25-40%, 6=40-55%, 7=55-70%, 8=80+%).
HESC cultures were prepared for differentiation by supplementing mTeSR™1 with 10 uM Y-27632 (Rock inhibitor) (Sigma) for at least one hour prior to single cell dissociation with TrypLE™ Express (Gibco), counted and replated onto plates pre-coated with reduced growth factor Matrigel™ (RGFMG) (Corning) at high density (150,000 cells/cm2) in mTeSR™1 medium, supplemented with 10 uM Y-27632 and cultured overnight. The following day, cultures were refed fresh mTeSR™1 medium, without Rock inhibitor cultured for another 18-48 hours, or until cell cultures were nearly confluent (FIG. 2). Subsequently, cells were cultured in Primary Differentiation Medium (PDM) (containing 100 nM LDN193189, 10 uM SB431542, 5 uM CKI-7, and supplemented with 10 mM Nicotinamide) for 45 hours, before being further supplemented with 10 uM Rock inhibitor for an hour (FIG. 3 A). Differentiating cultures were single cell dissociated using TryPLE™ Express, re-suspended in PDM supplemented with 10 mM Nicotinamide and 10 uM Rock inhibitor, and formed into 3D cell aggregates of approximately 1500 cells/aggregate, using the AggreWellP400 (StemCell Technologies) (FIG. 3B), and cultured overnight. After 12-18 hours, the cell aggregates. The cell aggregates were cultured in suspension in Corning® Costar® Ultra-Low attachment 6-well plates (Corning) in primary differentiation medium (with 10 mM Nicotinamide), until day 4 or day 6, to differentiate as generate 3D aggregates of hESC-derived eyefield cells (ANEBs) to eyefield progenitor cells (FIG. 4A). At day 6, ANEBs were re-seeded onto RGFMG coated plates in RPEC Differentiation Medium (RDM) (containing 250 nM IDE-2 and 3 uM CHIR99021). ANEBs attached to the plate and the outgrowths were assessed for the appearance of immature RPE-like morphology (FIG. 8). ANEB outgrowths were cultured in RDM until day 14. Some putative hESC-RPEC cultures were maintained in an undisrupted form on the plates, while others were single cell dissociated and re-plated onto RGFMG at 150,000 cells/cm2 and cultured in Base Medium 2 (BM2), or RPEC Culture Medium (RCM), both supplemented with 10 uM Y-27632 until medium change the following day. hESC-RPEC cultures that are not dissociated may be maintained in BM2, without further supplementation, or in RMM, to generate mature hESC-RPECs within 21-28 days of the differentiation process (FIG. 9).
The hESC methods of the invention relating to the differentiation of human SCs towards the eyefield progenitor cells, that are Rax+ on day 4 and day 6 (FIG. 6), which has been confirmed by qRT-PCR expression of Rax, LHX2, Pax6(−5a) (FIG. 7). […] FIG. 31 A is a summary of experimental conditions designed to test the ability of each molecule to contribute to efficient RPEC differentiation within a 14-day period. Primary differentiation was from day 0-day 6, followed by secondary differentiation, or RPE differentiation, from day 6 to day 14. Briefly, hESC differentiation to RPE in the absence of LDN is low. […] The role of CKI-7 on differentiation efficiency was tested in combination with a variety of combinations to determine the optimal signalling requirements for differentiation. The small molecule IDE-2 was tested for its ability to functionally replace Activin A in a context for which it had not previously been tested. […] Although the effect of NIC on hESC-RPEC differentiation was positive during differentiation towards to the eyefield, but negative after. […]

[1] = molecule used in secondary (RPE) differentiation conditions, day 6 to day 14
[2] = molecule used in primary differentiation conditions, day 0-day 6

Structure (SMILES)	hESC-RPEC differentiation (% putative RPE morphology at day 14) [1]	hESC-RPEC differentiation (% putative RPE morphology at day 14) [2]	hESC-RPEC differentiation by day 14 (combined use of IDE-2 with the GSK3b inhibitor, secondary differentiation day 6 to day 14)
Cc1c[nH]c(-c2cnc(NCCNc3ccc(C#N)cn3)nc2-c2ccc(Cl)cc2Cl)n1 [CHIR, CHIR99021]	essential for highly efficient RPEC differentiation	–	–
NCCNS(=O)(=O)c1ccc(Cl)c2ccncc12 [CKI-7]	–	greatly enhanced; also recorded: further enhanced	–
O=C(O)CCCCCC(=O)NN=C1CCCC1 [IDE-2]	enhances RPEC differentiation	–	highest degree of hESC-RPEC differentiation
c1ccc2c(-c3cnn4cc(-c5ccc(N6CCNCC6)cc5)cnc34)ccnc2c1 [LDN, LDN193189]	–	improved differentiation	–
NC(=O)c1cccnc1 [NIC, nicotinamide]	suppresses RPEC differentiation; also recorded: negative	positive	–
